Here are results for one substance from PMC8810773, “Structure-based prediction of HDAC6 substrates validated by enzymatic assay reveals determinants of promiscuity and detects new potential substrates” (Scientific Reports, 2022).

The target in this assay is T1, HDAC6 catalytic domain 2 (DD2) (Danio rerio, UniProt F8W4B7).
T1 construct: cloning the residues 440–798 of the Danio rerio HDAC6 gene into a modified pET28a(+) vector; 6xHis (N, cleaved yes); made in house; host or cells: E. coli BL21(DE3)
T1 sequence (F8W4B7 440-798): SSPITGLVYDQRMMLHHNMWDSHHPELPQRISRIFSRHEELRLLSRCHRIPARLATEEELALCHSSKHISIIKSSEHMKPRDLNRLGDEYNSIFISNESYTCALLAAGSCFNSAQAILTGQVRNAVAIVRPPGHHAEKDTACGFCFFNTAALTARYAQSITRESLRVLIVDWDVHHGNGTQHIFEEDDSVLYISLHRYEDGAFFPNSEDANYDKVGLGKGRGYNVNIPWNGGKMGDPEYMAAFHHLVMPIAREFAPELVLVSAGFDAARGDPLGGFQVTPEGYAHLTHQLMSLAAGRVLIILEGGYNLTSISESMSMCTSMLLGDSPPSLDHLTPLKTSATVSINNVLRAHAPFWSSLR
Nature of the assay: Enzyme-coupled acetate detection assay ('acetate assay') of HDAC6-catalyzed peptide deacetylation. Type of assay: biochemical. The following applies: Michaelis–Menten fit ± standard error; for kcat/KM: 10–2000 μM monoacetylated substrate, 0.1–1 μM HDAC6 DD2, 50 mM HEPES pH 8.0, 137 mM NaCl, 2.7 mM KCl, 1 mM MgCl2, 30 °C, NADH fluorescence, lower limits where KM below detection limit. An excerpt: We used an enzyme-coupled acetate detection assay, or simply the ‘acetate assay’ (see “Methods”), developed and applied previously[12],[27], to measure the catalytic efficiency (kcat/KM) of HDAC6. We measured catalysis of deacetylation of acetylated peptides with sequences taken from known substrate proteins, as well as a set of selected peptides with reported acetylation sites that were available to us from previous studies (Table 1). […] To ensure an accurate determination of kcat/KM we measured HDAC6-catalyzed deacetylation at a minimum of four peptide concentrations, with at least two concentrations below KM (Fig. 1, squares). A total of 26 peptides which met these criteria formed our training set (D-TRAINING, Table 1). Additionally, we included 16 peptides where the value of kcat was measured accurately but the KM value was lower than the limit of detection for the acetate assay (~ 10–20 μM substrate, circles in Fig. 1) allowing only the determination of a lower limit for the value of kcat/KM (set D-CAPPED, see below and Table 1). The measured kcat/KM values span the range of three orders of magnitude.
Figure 1 Dependence of deacetylation rate on substrate concentration for two representative peptides catalyzed by HDAC6, measured using the acetate assay. The initial velocity for each substrate concentration was determined from a linear regression of a time course consisting of a minimum of three timepoints, standard error is shown. The kinetic parameters are determined from a nonlinear least square fit of the Michaelis–Menten equation to the data and are listed in Table 1. Black squares: example of data which met the criteria to produce accurate kcat/KM values. Green circles: example of overfit data resulting in calculation of a lower limit for kcat/KM, due to the KM being lower than the detection limit of the assay.
The coupled acetate detection assay or simply the ‘acetate assay’ was performed as previously described with a few modifications. Briefly, lyophilized peptides were re-suspended in water when possible or with minimal quantities of acid, base, or organic solvent to improve solubility. Peptide concentration was determined by one or more of the following methods: (1) measuring A280 using the extinction coefficients if the peptide contained a tryptophan or tyrosine, using the fluorescamine assay if the peptide contained a free lysine, (2) performing the bicinchoninic acid (BCA) assay using bovine serum albumin (BSA) as a standard, and (3) determining the concentration of acetate produced by complete deacetylation of the peptide by HDAC6.
Reactions containing 10–2000 μM monoacetylated peptides in 1× HDAC6 assay buffer (50 mM HEPES, pH 8.0, 137 mM NaCl, 2.7 mM KCl, 1 mM MgCl2) were initiated with 0.1–1 μM HDAC6 at 30 °C. […]

With “RKSTGG(K-ac)APRKQL [13-mer: RKSTGG(K-ac)APRKQL, H3 K14ac 13-mer peptide]”, the kcat/KM is reported as 140,000±10,000 M^−1 s^−1. Besides, the kcat/KM (listed as 13-mer peptide analog) turned out to be 140000 M⁻¹ s⁻¹. Further, the catalytic constant (kcat) (HDAC6 DD2, pH 8.0, 30 °C) is 4.1 ± 0.3 s⁻¹. Besides, the Km (HDAC6 DD2, pH 8.0, 30 °C, detection limit ~10–20 μM substrate) was found to be 28 ± 5 µM.
